Each structure is given as a SMILES string.

The results in this text go back to article PMC4826290 (Journal of molecular biology, 2016).

This experiment addresses T1, Pif1^238–780 (Saccharomyces cerevisiae, UniProt P07271).
T1 sequence (P07271 238-780): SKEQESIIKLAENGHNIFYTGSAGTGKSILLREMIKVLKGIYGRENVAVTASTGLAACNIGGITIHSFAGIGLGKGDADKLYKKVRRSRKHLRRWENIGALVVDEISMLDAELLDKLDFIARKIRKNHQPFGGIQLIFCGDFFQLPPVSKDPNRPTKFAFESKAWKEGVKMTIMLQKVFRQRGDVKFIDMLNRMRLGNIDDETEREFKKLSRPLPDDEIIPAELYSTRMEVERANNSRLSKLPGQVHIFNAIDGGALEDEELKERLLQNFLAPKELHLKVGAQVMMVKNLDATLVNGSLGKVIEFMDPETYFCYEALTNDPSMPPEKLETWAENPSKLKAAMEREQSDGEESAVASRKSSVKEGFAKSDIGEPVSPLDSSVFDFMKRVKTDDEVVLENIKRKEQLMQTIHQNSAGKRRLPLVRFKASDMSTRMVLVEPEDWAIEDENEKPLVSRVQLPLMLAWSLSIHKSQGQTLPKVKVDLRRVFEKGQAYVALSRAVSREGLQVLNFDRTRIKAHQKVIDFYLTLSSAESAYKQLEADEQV
The experiment can be described thus: ssDNA-dependent ATPase. The class given is biochemical.

In the case of `Nc1ncnc2c1ncn2[C@@H]1O[C@H](COP(=O)(O)OP(=O)(O)OP(=O)(O)O)[C@@H](O)[C@H]1O` [ATP], the KATP result was “does not have major effects on the DNA-dependent ATPase activity and the KATP (Figure S1)”.
